The values below come from US20220356186A1, “PERK INHIBITING PYRROLOPYRIMIDINE COMPOUNDS” (HiberCell, Inc., priority 2019, published 2022).

Where two headings read alike, the source gives them in different places.

One data set can be described thus: Aqueous solubility. It is filed as physicochemical.
Data set [1] deals with GFP-eIF2α in HEK293 cells. As to the kind of experiment: PERK cellular assay, TR-FRET in HEK293-EGFP-eIF2a cells after tunicamycin-induced ER stress. It is filed as cell-based. An outline of the steps: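 HEK293 cells stably expressing GFP-eIF2α, plated 5000 cells/well overnight, pretreated with inhibitors 30 min at 37 °C, then ER stress induced with tunicamycin […] for 2 h.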
In general terms: Time-resolved FRET reads energy transfer from a long-lived donor to a nearby acceptor.

The target of data set [2] is T1, EIF2AK3 (PERK) catalytic domain (amino acids 536-1116) (Homo sapiens, UniProt Q9NZJ5).
T1 construct: EIF2AK3 (PERK) catalytic domain (amino acids 536-1116)
T1 sequence (Q9NZJ5 536-1116): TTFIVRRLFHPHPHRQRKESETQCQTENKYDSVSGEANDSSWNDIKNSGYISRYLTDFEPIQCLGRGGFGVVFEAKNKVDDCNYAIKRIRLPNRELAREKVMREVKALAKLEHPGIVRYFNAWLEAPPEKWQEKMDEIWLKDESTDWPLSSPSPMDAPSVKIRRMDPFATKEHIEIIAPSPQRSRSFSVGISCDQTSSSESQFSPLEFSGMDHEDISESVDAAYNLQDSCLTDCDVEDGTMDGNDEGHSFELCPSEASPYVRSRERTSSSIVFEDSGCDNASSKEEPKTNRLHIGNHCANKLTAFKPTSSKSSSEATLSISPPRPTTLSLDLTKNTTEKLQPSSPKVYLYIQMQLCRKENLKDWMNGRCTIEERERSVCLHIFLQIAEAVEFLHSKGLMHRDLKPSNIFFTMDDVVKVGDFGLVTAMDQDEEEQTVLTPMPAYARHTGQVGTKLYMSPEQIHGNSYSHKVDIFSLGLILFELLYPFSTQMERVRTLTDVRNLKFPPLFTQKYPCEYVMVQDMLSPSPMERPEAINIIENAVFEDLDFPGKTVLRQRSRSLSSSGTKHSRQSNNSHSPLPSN
In words: PERK in vitro activity assay (isolated), TR-FRET kinase assay. Type of data set: biochemical. An outline of the steps: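 Human PERK catalytic domain (aa 536-1116) phosphorylating 100-200 nM GFP-eIF2a in 50 mM HEPES pH 7.5, 10 mM MgCl2, 1 mM EGTA, 0.01% Brij-35; enzyme-started, 45 min at room temperature. Stopped with 10 mM EDTA, 2 nM Tb-anti-phospho-eIF2a added for 90 min; IC50 from TR-FRET ratios by 4-parameter logistic fit.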

The subject of a further data set is select kinases. In words: KINOMEscan in vitro competition binding assay for select kinases.
Setting [3] is: HEK293-EGFP-eIF2a cells, tunicamycin 2 hours, read-out: Cellular eIF2α IC50.
The mark [4] stands for this setting: Homo sapiens, HEK293, cellular potency, Table 2, read-out: P-EIF2α IC50.
The mark [5] stands for this setting: biochemical potency, Table 2, read-out: PERK IC50.
Setting [6] is: isolated PERK enzyme, 1.5 μM ATP, read-out: Biochemical IC50.

One may read the IC50 as the concentration that gives 50% inhibition.

On to `Cc1cc(NC(=O)C(O)c2ccccc2)ccc1-c1cn(C)c2ncnc(N)c12` (centres unmarked) [Example 6, N-(4-(4-amino-7-methyl-7H-pyrrolo[2,3-d]pyrimidin-5-yl)-3-methylphenyl)-2-hydroxy-2-phenylacetamide], for which the “Aq Sol” value in the data set “Aqueous solubility” worked out at 57 µM. Moreover, the IC50 in data set [1] (setting [3]) is 1 to 25 nM; in data set [1] (setting [4]), 23 nM; in data set [2] (setting [5]) it was 2 nM; in data set [2] (setting [6]), 1 to 25 nM.
On to `Cc1nc(N)c2c(-c3ccc(NC(=O)C(O)c4cccc(F)c4)cc3C)cn(C)c2n1` (single isomer, unassigned) [Example 1, N-(4-(4-amino-2,7-dimethyl-7H-pyrrolo[2,3-d]pyrimidin-5-yl)-3-methylphenyl)-2-(3-fluorophenyl)-2-hydroxyacetamide], for which the “KINOMEscan competition binding, inhibition of AURKB” value with select kinases (kinase AURKB) is “No Inhibition (“No Inhibition” refers to less than 50% inhibition)”. Moreover, in the data set with select kinases (kinase AXL), the “KINOMEscan competition binding, inhibition of AXL” value is “No Inhibition (“No Inhibition” refers to less than 50% inhibition)”. For the same compound, in the data set on select kinases (kinase BLK), the “KINOMEscan competition binding, inhibition of BLK” value was “No Inhibition (“No Inhibition” refers to less than 50% inhibition)”. In addition, the “KINOMEscan competition binding, inhibition of CAMK4” value with select kinases (kinase CAMK4) is reported as “No Inhibition (“No Inhibition” refers to less than 50% inhibition)”. For the same compound, the “KINOMEscan competition binding, inhibition of CDK8” value in the data set with select kinases (kinase CDK8) is “No Inhibition (“No Inhibition” refers to less than 50% inhibition)”. The “KINOMEscan competition binding, inhibition of CDK11” value in the data set with select kinases (kinase CDK11) was “No Inhibition (“No Inhibition” refers to less than 50% inhibition)”. In addition, the “KINOMEscan competition binding, inhibition of CSF1R” value with select kinases (kinase CSF1R) is “No Inhibition (“No Inhibition” refers to less than 50% inhibition)”. The “KINOMEscan competition binding, inhibition of EIF2AK1” value in the data set with select kinases (kinase EIF2AK1) is “No Inhibition (“No Inhibition” refers to less than 50% inhibition)”. Moreover, the “KINOMEscan competition binding, inhibition of EPHB6” value in the data set with select kinases (kinase EPHB6) is “No Inhibition (“No Inhibition” refers to less than 50% inhibition)”. Also, in the data set on select kinases (kinase FLT3), the “KINOMEscan competition binding, inhibition of FLT3” value is given as “No Inhibition (“No Inhibition” refers to less than 50% inhibition)”. In the data set on select kinases (kinase HIPK4), the “KINOMEscan competition binding, inhibition of HIPK4” value is on record as “No Inhibition (“No Inhibition” refers to less than 50% inhibition)”. In addition, the “KINOMEscan competition binding, inhibition of LOK” value in the data set on select kinases (kinase LOK) is recorded as “No Inhibition (“No Inhibition” refers to less than 50% inhibition)”. Further, the “KINOMEscan competition binding, inhibition of MAP3K2” value with select kinases (kinase MAP3K2) is listed as “No Inhibition (“No Inhibition” refers to less than 50% inhibition)”. Moreover, in the data set with select kinases (kinase MAP3K3), the “KINOMEscan competition binding, inhibition of MAP3K3” value is on record as “No Inhibition (“No Inhibition” refers to less than 50% inhibition)”. In addition, the “KINOMEscan competition binding, inhibition of MAP3K15” value with select kinases (kinase MAP3K15) was “No Inhibition (“No Inhibition” refers to less than 50% inhibition)”. Also, the “KINOMEscan competition binding, inhibition of MEK5” value in the data set with select kinases (kinase MEK5) is “No Inhibition (“No Inhibition” refers to less than 50% inhibition)”. In addition, in the data set with select kinases (kinase MKNK2), the “KINOMEscan competition binding, inhibition of MKNK2” value is listed as “No Inhibition (“No Inhibition” refers to less than 50% inhibition)”. Further, the “KINOMEscan competition binding, inhibition of NEK1” value with select kinases (kinase NEK1) is “No Inhibition (“No Inhibition” refers to less than 50% inhibition)”. Moreover, in the data set on select kinases (kinase NEK5), the “KINOMEscan competition binding, inhibition of NEK5” value is “No Inhibition (“No Inhibition” refers to less than 50% inhibition)”. Further, in the data set on select kinases (kinase PIK3C2B), the “KINOMEscan competition binding, inhibition of PIK3C2B” value is “No Inhibition (“No Inhibition” refers to less than 50% inhibition)”. Also, the “KINOMEscan competition binding, inhibition of RIOK2” value with select kinases (kinase RIOK2) is listed as “No Inhibition (“No Inhibition” refers to less than 50% inhibition)”. For the same compound, the “KINOMEscan competition binding, inhibition of RIPK1” value with select kinases (kinase RIPK1) is on record as “No Inhibition (“No Inhibition” refers to less than 50% inhibition)”. Also, in the data set on select kinases (kinase RIPK2), the “KINOMEscan competition binding, inhibition of RIPK2” value is on record as “No Inhibition (“No Inhibition” refers to less than 50% inhibition)”. Also, the “KINOMEscan competition binding, inhibition of RIPK5” value in the data set with select kinases (kinase RIPK5) was “No Inhibition (“No Inhibition” refers to less than 50% inhibition)”. For the same compound, in the data set on select kinases (kinase TESK1), the “KINOMEscan competition binding, inhibition of TESK1” value is given as “No Inhibition (“No Inhibition” refers to less than 50% inhibition)”. Also, the “KINOMEscan competition binding, inhibition of TIE2” value in the data set on select kinases (kinase TIE2) was “No Inhibition (“No Inhibition” refers to less than 50% inhibition)”. Further, in the data set with select kinases (kinase TRKA), the “KINOMEscan competition binding, inhibition of TRKA” value is recorded as “No Inhibition (“No Inhibition” refers to less than 50% inhibition)”. Besides, in the data set with select kinases (kinase TRKB), the “KINOMEscan competition binding, inhibition of TRKB” value is listed as “No Inhibition (“No Inhibition” refers to less than 50% inhibition)”. Besides, the “KINOMEscan competition binding, inhibition of TRKC” value with select kinases (kinase TRKC) is reported as “No Inhibition (“No Inhibition” refers to less than 50% inhibition)”. For the same compound, the “KINOMEscan competition binding, inhibition of VRK2” value with select kinases (kinase VRK2) is on record as “No Inhibition (“No Inhibition” refers to less than 50% inhibition)”. Also, the “KINOMEscan competition binding, inhibition of YANK1” value in the data set on select kinases (kinase YANK1) is given as “No Inhibition (“No Inhibition” refers to less than 50% inhibition)”. The “KINOMEscan competition binding, inhibition of YANK2” value in the data set with select kinases (kinase YANK2) is reported as “No Inhibition (“No Inhibition” refers to less than 50% inhibition)”. Also, the “KINOMEscan competition binding, inhibition of YSK4” value in the data set with select kinases (kinase YSK4) is on record as “No Inhibition (“No Inhibition” refers to less than 50% inhibition)”. Moreover, the Kinase selectivity entry in the data set with select kinases (versus Example 9 and GSK2656157, KINOMEscan, Treespot analysis) is “more selective”. Moreover, the figures for the IC50 in data set [1] (setting [3]) and in data set [2] (setting [6]) were 26 to 50 nM and 1 to 25 nM, respectively.
On to `Cc1cc(NC(=O)Cc2ccccc2)ccc1-c1cn(C)c2ncnc(N)c12` [Compound A, reference compound], for which, in “Aqueous solubility”, the “Aq Sol” value was 14 µM. Also, the IC50 turned out to be 41 nM in data set [1] (setting [4]) and 6 nM in data set [2] (setting [5]).
